From patent US11072588B2, “Barbituric acid derivatives comprising cationic and lipophilic groups” (UNIVERSITETET I TROMSØ—NORGES ARKTISKE UNIVERSITET, priority 2017, dated 2021)
Converted amounts (≈) assume the structure as drawn. Read-outs that look alike come from different tables or passages of the source.

Columns and labels:
[1] = tested on: panel of 30 multi-resistant clinical isolates of Gram-positive and Gram-negative bacteria; experiment: MIC screening, ranges over the panel of clinical isolates; format: cell-based
Procedure: (§1) Working solutions of the test derivatives were prepared with up to 100% DMSO and stored at −20° C. If necessary, the solutions were heated to 40-80° C. before testing to facilitate complete dissolution. Double-distilled water was used in all dilutions prepared. […] A microdilution susceptibility test was used for MIC determination according to Clinical and Laboratory Standards Institute, “Methods for Dilution Antimicrobial Sisceptibility Tests for Bacteria That Graw Aerobically”, Approved Standard M07-A9, edition 2012, with modifications as described by Igumnova et al (Bioorg Med Chem, 2016, 24 (22), 5884-5894).
(§2) Briefly, the bacterial inoculum was adjusted to approximately 2.5-3×10^4 cells/mL in Mueller-Hinton broth (MHB, Difco Laboratories, USA), and incubated in a ratio of 1:1 with test derivatives in polystyrene 96-well flat-bottom microplates (NUNC, Roskilde, Denmark). Positive growth control (without test derivatives) and negative control (without bacteria) were included. The reference antibiotic was oxytetracycline hydrochloride (Sigma Aldrich, Saint Louis, Mo., USA). The microplates were incubated in an EnVision microplate reader (Perkin-Elmer, Turku, Finland) placed in an incubator set to 35° C. for 48 h. The MIC value was defined as the lowest concentration of derivative resulting in no bacterial growth as determined by OD600 measurement. All derivatives were tested in three parallels.
(§3) The MIC was determined as explained above with some exceptions; working solutions of test derivatives were prepared from concentrated DMSO stocks stored at room temperature, the density of the bacterial inoculum was increased 40× to 1-1.2×10^6 cells/mL, enterococci were incubated in Brain Heart Infusion broth (BHIB, Difco Laboratories, USA), the microplates were incubated for 24 h, and the derivatives were tested in four parallels.

[2] = tested on: Staphylococcus aureus ATCC 9144; experiment: MIC assay, antibiotic susceptible reference strain; format: cell-based; settings: Staphylococcus aureus, ATCC9144, read-out: Antimicrobial activity (MIC) S. a
Procedure: as §1, §2

[3] = tested on: Pseudomonas aeruginosa PA01, DSM 19880 (ATCC 15692); experiment: MIC assay, antibiotic susceptible reference strain; format: cell-based; settings: Pseudomonas aeruginosa, read-out: Antimicrobial activity (MIC) P. a
Procedure: as §1, §2

[4] = tested on: Corynebacterium glutamicum ATCC 13032; experiment: MIC assay, antibiotic susceptible reference strain; format: cell-based; settings: Corynebacterium glutamicum, ATCC13032, read-out: Antimicrobial activity (MIC) C. g
Procedure: as §1, §2

[5] = tested on: Escherichia coli ATCC 25922; experiment: MIC assay, antibiotic susceptible reference strain; format: cell-based; settings: Escherichia coli, ATCC25922, read-out: Antimicrobial activity (MIC) E. c
Procedure: as §1, §2

[6] = tested on: K. pneumoniae K66-45; experiment: MIC, multi-resistant clinical isolate; format: cell-based, Klebsiella pneumoniae; settings: for MIC: Klebsiella pneumoniae, K6645, read-out: Antimicrobial activity (MIC); for selectivity index (EC50/MIC): RBC EC50 / MIC, K. pneumoniae K66-45
Procedure: as §1, §2, §3

[7] = tested on: K. pneumoniae K47-25; experiment: MIC, multi-resistant clinical isolate; format: cell-based, Klebsiella pneumoniae; settings: for MIC: Klebsiella pneumoniae, K4725, 24 h, read-out: Antimicrobial activity (MIC); for selectivity index (EC50/MIC): RBC EC50 / MIC
Procedure: as §1, §2, §3

[8] = tested on: K. pneumoniae 50531633; experiment: MIC, multi-resistant clinical isolate; format: cell-based, Klebsiella pneumoniae; settings: K. pneumoniae 50531633, resistant to colistin; for MIC: Klebsiella pneumoniae, 24 h, read-out: Antimicrobial activity (MIC); for selectivity index (EC50/MIC): RBC EC50 / MIC
Procedure: as §1, §2, §3

[9] = tested on: K. pneumoniae 50667959; experiment: MIC, multi-resistant clinical isolate; format: cell-based, Klebsiella pneumoniae; settings: for MIC: Klebsiella pneumoniae, read-out: Antimicrobial activity (MIC); for selectivity index (EC50/MIC): RBC EC50 / MIC
Procedure: as §1, §2, §3

[10] = tested on: human metastatic melanoma (A2058, ATCC CRL-11147) cells; experiment: Anti-cancer activity against A2058 cells; format: cell-based; settings: A2058, read-out: Anti-cancer IC50
Procedure: Cytotoxicity of the test compounds was evaluated after 72 hour exposure to human metastatic melanoma (A2058, ATCC CRL-11147) cells.
A2058 cells were grown overnight (2,000 cells/well), and then incubated with the test compounds (range of concentrations) diluted in MEM Earle's supplemented with gentamycin (10 μg/mL), non-essential amino acids (1%), sodium pyruvate (1 mM), L-alanyl-Lglutamine (2 mM), but without FBS (total volume was 100 μl) for […]. Ten μL of CellTiter 96® AQueous One Solution Reagent (Promega, Madison, Wis., USA) was added, and the plates were then further incubated for 1 hour.
Absorbance was measured at 485 nm in a DTX 880 Multimode Detector. Results were calculated as % survival compared to negative (assay media) and positive (Triton X-100; Sigma-Aldrich) controls.

[11] = tested on: S. epidermidis; experiment: Anti-biofilm activity (inhibition of biofilm formation); format: cell-based; settings: Staphylococcus epidermidis, read-out: Anti-biofilm IC50
[12] = tested on: E. faecium 50673722; experiment: MIC, multi-resistant clinical isolate; format: cell-based, Enterococcus faecium; settings: for MIC: Enterococcus faecium, read-out: Antimicrobial activity (MIC); for selectivity index (EC50/MIC): RBC EC50 / MIC
Procedure: as §1, §2, §3

[13] = tested on: E. faecium 50901530; experiment: MIC, multi-resistant clinical isolate; format: cell-based, Enterococcus faecium; settings: for MIC: Enterococcus faecium, read-out: Antimicrobial activity (MIC); for selectivity index (EC50/MIC): RBC EC50 / MIC
Procedure: as §1, §2, §3

[14] = tested on: E. faecium K36-18; experiment: MIC, multi-resistant clinical isolate; format: cell-based, Enterococcus faecium; settings: for MIC: Enterococcus faecium, K3618, read-out: Antimicrobial activity (MIC); for selectivity index (EC50/MIC): RBC EC50 / MIC, E. faecium K36-18
Procedure: as §1, §2, §3

[15] = tested on: E. faecium 50758899; experiment: MIC, multi-resistant clinical isolate; format: cell-based, Enterococcus faecium; settings: for MIC: Enterococcus faecium, read-out: Antimicrobial activity (MIC); for selectivity index (EC50/MIC): RBC EC50 / MIC
Procedure: as §1, §2, §3

[16] = tested on: antibiotic susceptible Gram-positive and Gram-negative reference strains; experiment: MIC assay, ranges over the reference strains; format: cell-based
Procedure: as §1, §2

[17] = tested on: K. pneumoniae 50625602; experiment: MIC, multi-resistant clinical isolate; format: cell-based, Klebsiella pneumoniae; settings: for MIC: Klebsiella pneumoniae, read-out: Antimicrobial activity (MIC); for selectivity index (EC50/MIC): RBC EC50 / MIC
Procedure: as §1, §2, §3

[18] = tested on: E. faecium TUH50-22; experiment: MIC, multi-resistant clinical isolate; format: cell-based, Enterococcus faecium; settings: for MIC: Enterococcus faecium, TUH5022, read-out: Antimicrobial activity (MIC); for selectivity index (EC50/MIC): RBC EC50 / MIC
Procedure: as §1, §2, §3

[19] = K. pneumoniae K47-25, resistant to colistin
[20] = range over S. aureus, C. glutamicum, E. coli, P. aeruginosa reference strains, read-out: MIC values against all the reference strains

| Structure (SMILES) | MIC [2] | MIC [3] | MIC [4] | MIC [5] | MIC [6] | selectivity index (EC50/MIC) [6] | MIC [8] | selectivity index (EC50/MIC) [8] | MIC [9] | selectivity index (EC50/MIC) [9] | IC50 [10] | IC50 [11] | MIC [12] | selectivity index (EC50/MIC) [12] | MIC [13] | selectivity index (EC50/MIC) [13] | MIC [14] | selectivity index (EC50/MIC) [14] | MIC [15] | selectivity index (EC50/MIC) [15] | further results |
| --- | --- | --- | --- | --- | --- | --- | --- | --- | --- | --- | --- | --- | --- | --- | --- | --- | --- | --- | --- | --- | --- |
| NCCCCN1C(=O)N(CCCCN)C(=O)C(Cc2cc(Br)cc(Br)c2)(Cc2cc(Br)cc(Br)c2)C1=O [7(ii)] | 4 µg/mL (≈ 5.22 µM) | 8 µg/mL (≈ 10.4 µM) | 1 µg/mL (≈ 1.31 µM) | 4 µg/mL (≈ 5.22 µM) | 16 µg/mL (≈ 20.9 µM) | (5) | 8 µg/mL (≈ 10.4 µM) | (10) | 16 µg/mL (≈ 20.9 µM) | (5) | 1 µg/mL (≈ 1.31 µM) | 6 µg/mL (≈ 7.83 µM) | 4 µg/mL (≈ 5.22 µM) | (21) | 4 µg/mL (≈ 5.22 µM) | (21) | 8 µg/mL (≈ 10.4 µM) | (10) | 4 µg/mL (≈ 5.22 µM) | (21) | MIC ([1]; read-out: MIC values against S. aurues, E. faecium and E. coli): 4 to 8 µg/mL (≈ 5.22 to 10.4 µM); MIC [7]: 16 µg/mL (≈ 20.9 µM); selectivity index (EC50/MIC) [7, 19]: (5); MIC [16, 20]: 1 to 8 µg/mL (≈ 1.31 to 10.4 µM) |
| CC(C)(C)c1cc(CC2(Cc3cc(C(C)(C)C)cc(C(C)(C)C)c3)C(=O)N(CCCCN)C(=O)N(CCCCN)C2=O)cc(C(C)(C)C)c1 [7(iii), 1,3-bis(4-aminobutyl)-5,5-bis(3,5-di-tert-butylbenzyl)-pyrimidin-2,4,6(1H,3H,5H)-trione] | 1 µg/mL (≈ 1.48 µM) | 4 µg/mL (≈ 5.93 µM) | 0.25 µg/mL (≈ 0.37 µM) | 2 µg/mL (≈ 2.96 µM) | 8 µg/mL (≈ 11.9 µM) | (<0.5) | 8 µg/mL (≈ 11.9 µM) | (<0.5) | 8 µg/mL (≈ 11.9 µM) | (<0.5) | 1 µg/mL (≈ 1.48 µM) | 1 µg/mL (≈ 1.48 µM) | 2 µg/mL (≈ 2.96 µM) | (<2) | 2 µg/mL (≈ 2.96 µM) | (<2) | 2 µg/mL (≈ 2.96 µM) | (<2) | 2 µg/mL (≈ 2.96 µM) | (<2) | MIC ([1]; read-out: MIC values against all the 30 multi-resistant clinical isolates): 2 to 16 µg/mL (≈ 2.96 to 23.7 µM); MIC [17]: 8 µg/mL (≈ 11.9 µM); selectivity index (EC50/MIC) [17]: (<0.5); MIC [7]: 16 µg/mL (≈ 23.7 µM); selectivity index (EC50/MIC) [7, 19]: (<2.5); MIC [18]: 2 µg/mL (≈ 2.96 µM); selectivity index (EC50/MIC) [18]: (<2); MIC [16, 20]: 0.25 to 4 µg/mL (≈ 0.37 to 5.93 µM) |
| CC(C)(C)c1cc(CC2(Cc3cc(C(C)(C)C)cc(C(C)(C)C)c3)C(=O)N(CCCCNC(=N)N)C(=O)N(CCCCNC(=N)N)C2=O)cc(C(C)(C)C)c1 [8(iii), 1,1′-(4,4′-(5,5-bis(3,5-di-tert-butylbenzyl)-2,4,6-trioxodihydropyrimidine-1,3(2H,4H)-diyl)bis(butane-4,1-diyl))-diguanidine] | 1 µg/mL (≈ 1.32 µM) | 4 µg/mL (≈ 5.27 µM) | 0.25 µg/mL (≈ 0.329 µM) | 4 µg/mL (≈ 5.27 µM) | 8 µg/mL (≈ 10.5 µM) | (<0.5) | 16 µg/mL (≈ 21.1 µM) | (<0.25) | 8 µg/mL (≈ 10.5 µM) | (<0.5) | 33 µg/mL (≈ 43.5 µM) | 2 µg/mL (≈ 2.63 µM) | 2 µg/mL (≈ 2.63 µM) | (<2) | 2 µg/mL (≈ 2.63 µM) | (<2) | 2 µg/mL (≈ 2.63 µM) | (<2) | 2 µg/mL (≈ 2.63 µM) | (<2) | MIC [17]: 16 µg/mL (≈ 21.1 µM); selectivity index (EC50/MIC) [17]: (<0.25); MIC [7, 19]: 16 µg/mL (≈ 21.1 µM); selectivity index (EC50/MIC) [7, 19]: (<0.25); MIC [18]: 2 µg/mL (≈ 2.63 µM); selectivity index (EC50/MIC) [18]: (<2); MIC ([16]; reference strains, range, read-out: MIC values against the Gram-negative bacteria E. coli and P. aeruginosa): 4 µg/mL (≈ 5.27 µM) |
| CC(C)(C)c1ccc(CC2(Cc3ccc(C(C)(C)C)cc3)C(=O)N(CCCCN)C(=O)N(CCCCN)C2=O)cc1 [Compound 7(i), 1,3-bis(4-aminobutyl)-5,5-bis(4-tertbutylbenzyl) pyrimidin-2,4,6(1H,3H,5H)-trione] | 4 µg/mL (≈ 7.11 µM) | 8 µg/mL (≈ 14.2 µM) | 1 µg/mL (≈ 1.78 µM) | 4 µg/mL (≈ 7.11 µM) | 32 µg/mL (≈ 56.9 µM) | (4) | 16 µg/mL (≈ 28.4 µM) | (9) | 32 µg/mL (≈ 56.9 µM) | (4) | 1 µg/mL (≈ 1.78 µM) | 4 µg/mL (≈ 7.11 µM) | 8 µg/mL (≈ 14.2 µM) | (18) | 4 µg/mL (≈ 7.11 µM) | (36) | 8 µg/mL (≈ 14.2 µM) | (18) | 8 µg/mL (≈ 14.2 µM) | (18) | MIC [17]: 16 µg/mL (≈ 28.4 µM); selectivity index (EC50/MIC) [17]: (9); MIC [7]: > 32 µg/mL; MIC [18]: 8 µg/mL (≈ 14.2 µM); selectivity index (EC50/MIC) [18]: (18); MIC [16, 20]: 1 to 8 µg/mL (≈ 1.78 to 14.2 µM) |
